Results on 13 compounds are retold here after ChEMBL document CHEMBL3994587, “An insight on synthetic and medicinal aspects of pyrazolo[1,5-a]pyrimidine scaffold” (Eur J Med Chem, 2017).

Test [1] has as its target T1, Translocator protein (Rattus norvegicus, UniProt P16257). The test is described as follows: Displacement of [3H]PK11195 from PBZR in rat kidney mitochondrial membranes measured after 90 mins by liquid scintillation counting. Format: cell membranes. In general terms: Displacement assays read how much labelled ligand stays bound in the presence of the test substance.

In test [2] the target is T1, Translocator protein. The test is described as follows: Displacement of [3H]Ro5-4864 from PBZR in rat kidney mitochondrial membranes measured after 90 mins by liquid scintillation counting. It is filed as cell membranes.
The subject of test [3] is Staphylococcus aureus. Put plainly: Antibacterial activity against Staphylococcus aureus NCTC 7447 assessed as zone of inhibition at 1 mg/ml measured after 24 hrs by agar diffusion method. It is filed as functional. Conditions: NCTC 7447, 24 h, read-out: IZ. A general note: Agar diffusion results depend on both activity and mobility in agar.
The subject of test [4] is Bacillus subtilis. The test is described as follows: Antibacterial activity against Bacillus subtilis NCTC 10400 assessed as zone of inhibition at 1 mg/ml measured after 24 hrs by agar diffusion method. It is filed as functional. Conditions: NCTC 10400, 24 h, read-out: IZ.
Another test has as its system Sarcina. Put plainly: Antibacterial activity against Sarcina sp. NCTC 1117 assessed as zone of inhibition at 1 mg/ml measured after 24 hrs by agar diffusion method. It is filed as functional. As to conditions: NCTC 1117, 24 h, read-out: IZ.
The subject of test [5] is Escherichia coli. Put plainly: Antibacterial activity against Escherichia coli NCTC 10416 assessed as zone of inhibition at 1 mg/ml measured after 24 hrs by agar diffusion method. It is filed as functional. As to conditions: NCTC 10416, 24 h, read-out: IZ.
The next test deals with Serratia marcescens. The test is described as follows: Antibacterial activity against Serratia marcescens IMRU 70 assessed as zone of inhibition at 1 mg/ml measured after 24 hrs by agar diffusion method. It is filed as functional. As to conditions: IMRU 70, 24 h, read-out: IZ.
A further test has as its system Tritrichomonas foetus. The test is described as follows: Anti-parasitic activity against Tritrichomonas foetus measured after 48 hrs by microscopic analysis. It is filed as functional.
Test [6] has as its system Staphylococcus aureus. The test is described as follows: Antibacterial activity against Staphylococcus aureus measured after 18 hrs by agar dilution method. Format: functional. (In agar dilution the substance is mixed into plates at graded concentrations.)
For test [7], the system named is Bacillus subtilis. Put plainly: Antibacterial activity against Bacillus subtilis measured after 18 hrs by agar dilution method. It is filed as functional.
Test [8] concerns Escherichia coli. Put plainly: Antibacterial activity against Escherichia coli measured after 18 hrs by agar dilution method. It is filed as functional.
A further test deals with Pseudomonas aeruginosa. Put plainly: Antibacterial activity against Pseudomonas aeruginosa measured after 18 hrs by agar dilution method. Format: functional.
Test [9] relates to Candida albicans. Put plainly: Antifungal activity against Candida albicans measured after 18 hrs by agar dilution method. Format: functional.
The subject of another test is Salmonella typhi. The test is described as follows: Antibacterial activity against Salmonella typhi MTCC 98 assessed as zone of inhibition at 25 to 150 ug/ml measured after 24 hrs by agar well diffusion method. Format: functional, Salmonella enterica subsp. enterica serovar Typhi.
For test [10], the system named is Escherichia coli. Put plainly: Antibacterial activity against Escherichia coli MTCC 443 assessed as zone of inhibition at 25 to 150 ug/ml measured after 24 hrs by agar well diffusion method. It is filed as functional.
For test [11], the system named is Staphylococcus aureus. Put plainly: Antibacterial activity against Staphylococcus aureus MTCC 96 assessed as zone of inhibition at 25 to 150 ug/ml measured after 24 hrs by agar well diffusion method. It is filed as functional.
The next test relates to Aspergillus niger. The test is described as follows: Antifungal activity against Aspergillus niger assessed as zone of inhibition at 25 to 150 ug/ml measured after 24 to 48 hrs by agar well diffusion method. Format: functional.
Another test has as its system Aspergillus flavus. The test is described as follows: Antifungal activity against Aspergillus flavus MTCC 3008 assessed as zone of inhibition at 25 to 150 ug/ml measured after 24 to 48 hrs by agar well diffusion method. Format: functional.
Test [12] concerns Candida albicans. The test is described as follows: Antifungal activity against Candida albicans MTCC 227 assessed as zone of inhibition at 25 to 150 ug/ml measured after 24 to 48 hrs by agar well diffusion method. It is filed as functional.
A further test relates to Penicillium chrysogenum. The test is described as follows: Antifungal activity against Penicillium chrysogenum MTCC 160 assessed as zone of inhibition at 25 to 150 ug/ml measured after 24 to 48 hrs by agar well diffusion method. It is filed as functional.
The subject of test [13] is Bacillus subtilis. The test is described as follows: Antibacterial activity against Bacillus subtilis MTCC 441 assessed as zone of inhibition at 25 to 150 ug/ml measured after 24 hrs by agar well diffusion method. It is filed as functional.
Test [14] concerns Trichophyton mentagrophytes. Put plainly: Anti-fungal activity against Trichophyton mentagrophytes measured after 48 hrs by broth dilution method. It is filed as functional.

Values after ≈ are worked out from the molar mass of the structure shown.

T1 sequence (P16257 whole entry, looked up): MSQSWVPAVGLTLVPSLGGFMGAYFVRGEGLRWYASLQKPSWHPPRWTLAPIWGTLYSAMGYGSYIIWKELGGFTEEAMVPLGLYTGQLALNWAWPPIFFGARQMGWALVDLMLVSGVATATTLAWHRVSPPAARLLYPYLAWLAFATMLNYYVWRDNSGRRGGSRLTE

What is called Ki is a measure of affinity in units of concentration, obtained from inhibition or displacement. In the case of `CCC(CC)C(=O)Cc1c(-c2ccc(Cl)cc2)nn2c(C)cc(C)nc12`, the values for the Ki on Translocator protein [1] and on Translocator protein [2] were 2.4 nM and 1.4 nM, respectively.

In the case of `COc1ccccc1NS(=O)(=O)c1ccc(/N=N/c2c(=O)[nH]n3cc(C#N)c(N)nc23)cc1`, the zone of inhibition at 1000 µg/mL was 9 to 11 mm in the test on Staphylococcus aureus [3]; 15 to 18 mm with Bacillus subtilis [4]; 12 to 14 mm in the test with Sarcina; 12 to 14 mm in the test with Escherichia coli [5]; 12 to 14 mm in the test with Serratia marcescens.

The term MIC denotes the smallest concentration in the dilution series that meets the test's criterion for growth inhibition. `CCOC(=O)c1cn(CC)c2c([N+](=O)[O-])cnn2c1=O` showed an MLC in the test on Tritrichomonas foetus of 3.2 µg/mL (≈ 11.4 µM). It took 1 µg/mL (≈ 3.57 µM) to inhibit growth against Tritrichomonas foetus (Tritrichomonas foetus, 48 h) (MIC).

For the compound `Cc1nc(-c2ccccc2)sc1-c1ccn2nc(C#N)cc2n1`, the MIC against Staphylococcus aureus [6] is at least 800 µg/mL; in the test on Bacillus subtilis [7] it was at least 800 µg/mL; in the test with Escherichia coli [8] it was at least 800 µg/mL; with Pseudomonas aeruginosa, at least 800 µg/mL; in the test on Candida albicans [9], at least 400 µg/mL.

As for `COc1ccc(NS(=O)(=O)c2ccc(/N=N/c3c(=O)[nH]n4c(-c5nccc(C)n5)c(C#N)c(N)nc34)cc2)cc1`, the zone of inhibition at 1000 µg/mL in the test with Staphylococcus aureus [3] is 12 to 14 mm; in the test with Bacillus subtilis [4], 9 to 11 mm; in the test on Sarcina, 15 to 18 mm; in the test on Escherichia coli [5], 12 to 14 mm; in the test with Serratia marcescens, 15 to 18 mm.

With `Cc1nc(-c2ccccc2)sc1-c1ccn2nc(C)c(-c3ccccc3)c2n1`, the MIC with Staphylococcus aureus [6] is at least 800 µg/mL; in the test on Bacillus subtilis [7] it was at least 400 µg/mL; with Escherichia coli [8], at least 400 µg/mL; with Pseudomonas aeruginosa, at least 800 µg/mL; against Candida albicans [9], at least 400 µg/mL.

Turning to `COc1ccccc1NS(=O)(=O)c1ccc(/N=N/c2c(=O)[nH]n3c(-c4ncccn4)c(C#N)c(N)nc23)cc1`, the zone of inhibition at 1000 µg/mL lay within 15 to 18 mm with Staphylococcus aureus [3]; 15 to 18 mm in the test on Bacillus subtilis [4]; 12 to 14 mm in the test on Sarcina; 12 to 14 mm with Escherichia coli [5]; 12 to 14 mm with Serratia marcescens.

For `Cc1ccc(-c2cc(-c3c(C)nn(-c4ccccc4)c3Cl)n3nc(N)c(/N=N/c4ccc(Cl)cc4)c3n2)c(O)c1Br`, the “inhibition zone (IZ)” value in the test with Salmonella typhi was 30 mm; in the test on Escherichia coli [10] it was 19 mm; in the test on Staphylococcus aureus [11], 10 mm; in the test with Aspergillus niger, 14 mm; with Aspergillus flavus it was 17 mm; with Candida albicans [12], 15 mm. Besides, in the test on Penicillium chrysogenum, the “inhibition zone (IZ)” value stood at 16 mm.

In the case of `Cc1nn(-c2ccccc2)c(Cl)c1-c1cc(-c2cc(Cl)ccc2O)nc2c(/N=N/c3ccc(Cl)cc3)c(N)nn12`, the “inhibition zone (IZ)” value was 15 mm in the test on Salmonella typhi; 18 mm with Escherichia coli [10]; 12 mm in the test on Bacillus subtilis [13]; 15 mm with Staphylococcus aureus [11]; 20 mm in the test on Aspergillus niger; 11 mm with Candida albicans [12]. The “inhibition zone (IZ)” value in the test with Penicillium chrysogenum is on record as 13 mm.

`Cc1cc(O)c(-c2cc(-c3c(C)nn(-c4ccccc4)c3Cl)n3nc(N)c(/N=N/c4ccc(Cl)cc4)c3n2)cc1Cl`: the “inhibition zone (IZ)” value in the test with Escherichia coli [10] is reported as 16 mm; with Bacillus subtilis [13], 18 mm; with Staphylococcus aureus [11], 14 mm; in the test on Aspergillus niger it was 16 mm; in the test on Aspergillus flavus it was 10 mm; in the test on Candida albicans [12] it was 20 mm. Further, the “inhibition zone (IZ)” value in the test with Penicillium chrysogenum is reported as 19 mm.

In test [14], `CCCCCCCCNc1cc(C)nc2ccnn12` returned an MLC of 160 µM (≈ 41.7 µg/mL). The compound further showed an MIC in [14] (Trichophyton mentagrophytes, 48 h) of 20 µM (≈ 5.21 µg/mL).

With `Cc1nc(-c2ccccc2)sc1-c1ccn2ncc(-c3ccccc3)c2n1`, the MIC in the test on Staphylococcus aureus [6] is at least 800 µg/mL; with Bacillus subtilis [7], at least 400 µg/mL; against Escherichia coli [8], at least 800 µg/mL; in the test with Pseudomonas aeruginosa, at least 400 µg/mL; with Candida albicans [9], at least 400 µg/mL.

As to `Cc1nn(-c2ccccc2)c(Cl)c1-c1cc(-c2cc(Cl)cc(I)c2O)nc2c(/N=N/c3ccc(Cl)cc3)c(N)nn12`, the “inhibition zone (IZ)” value in the test on Salmonella typhi is recorded as 16 mm; in the test with Escherichia coli [10] it was 17 mm; in the test with Bacillus subtilis [13], 15 mm; in the test on Staphylococcus aureus [11] it was 18 mm; with Aspergillus niger it was 26 mm; in the test with Aspergillus flavus, 21 mm. Also, the “inhibition zone (IZ)” value was 19 mm in the test with Candida albicans [12] and 17 mm in the test with Penicillium chrysogenum.
